pIC50: −log10 of the molar value.
Experiments:
LNCaP F876L = assay: LNCaP Proliferation Assay (LNCaP F876L); assay type: cell-based; details: Homo sapiens, 96 h, 4 days, CellTiter-Glo, normalized to 0.1 nM R1881 stimulation
Description: (§1) LNCaP cells were expanded in RPMI 10% FBS in T150 flasks. The cells were dislodged with 0.25% Trypsin, washed in complete media, centrifuged (300 g, 3 min), and the supernatant aspirated. The cells were resuspended in RPMI phenol-red free media with 1% charcoal-stripped serum (CSS) and counted using a ViCELL (Beckman-Coulter). 7500 cells were added to each well of a white optical bottom 384-well plate and incubated for 2 days at 37° C. 5% CO2. Compound dilutions were prepared in RPMI CSS using 50 mM stock solutions and added to the cells either alone (agonist mode) or in combination with 0.1 nM R1881 (antagonist mode). The plates were incubated for 4 days, followed by addition of CellTiter-Glo Luminescent Cell Viability kit reagent (Promega). The plates were placed on a shaker at 3000 rpm for 10 minutes and then read on an EnVision plate reader (Perkin Elmer) using Luminescence assay default settings. The data was analyzed, normalized to 0.1 nM R1881 stimulation, and plotted in GraphPad Prism.

LNCaP SRαF876L cells = assay: Castrate Resistant Prostate Cancer Xenograft Study; assay type: in vivo, mouse; details: castrate SHO mice
Description: Castrate six to seven week old male SCID Hairless Outbred mice (SHO, Charles Rivers Laboratories) were used as the host strain for xenograft studies. LNCaP SRαF876L cells were cultured as 3-D spheroids and expanded prior to subcutaneous injection on the flank of the animals (supplied post castration). Briefly, 5 mls of cells in media+5 mls of cultrex were premixed prior to plating of 500 μl=2×10^5 cells per well of a 24-well plate. Plates were incubated @ 37° C. for 30 min before addition of complete media on top and returned to incubator for growth of 3-D colonies. After 7 days, media was removed, plates chilled and contents of each well, 500 μl cultrex and cells, injected into flank of a recipient mouse. Tumor volume (length×width2/2) was monitored weekly. When tumors reached an average volume of ˜200 mm^3, animals were randomized into treatment groups. During the treatment period tumor volume was monitored bi-weekly. At study end, tumor growth inhibition (TGI) was calculated: 100−(Treated/Control*100). At the termination of study tumors were collected and stored for further analyses.

LNCaP WT = assay: LNCaP Proliferation Assay (LNCaP WT); assay type: cell-based; details: Homo sapiens, 96 h, 4 days, CellTiter-Glo, normalized to 0.1 nM R1881 stimulation
Description: as §1

GR (human) = GR (human) (Homo sapiens (Human), UniProt P04150); assay: Radioligand binding to GR; details: [3H]dexamethasone, IM-9 cells (cytosol)
Description: Radioligand binding assays were performed with the cell extracts and ligands as detailed below. Complete methodology is contained within the cited publications. Kd values were determined by Non-Specific Incubation Detection Method.
GR (human) (agonist radioligand) IM-9 cells (cytosol)
[^3H]dexamethasone 1.5 nM 1.5 nM triamcinolone (10 μM) 6 h 4° C. Scintillation counting (Clark, A. F et al. (1996) Invest. Ophtalmol. Vis. Sci., 37: 805-813).
The results are expressed as a percent of control specific binding measured specific binding*100 control specific binding and as a percent inhibition of control specific binding 100-(measured specific binding*100) control specific binding obtained in the presence of compound.
The IC50 values (concentration causing a half-maximal inhibition of control specific binding) and Hill coefficients (nH) were determined by non-linear regression analysis of the competition curves generated with mean replicate values using Hill equation curve fitting. Y=D+[A−D] 1+(C/C50)nH […]
The inhibition constants (Ki) were calculated using the Cheng Prusoff equation: Ki=[…]
Radioligand binding inhibition and affinity calculations were determined using [^3H]-methyltrienolone, [^3H]-dexamethasone and [^3H]-estradiol for AR, GR and ER, respectively. […]

AR-VP16 = AR-VP16 (Homo sapiens, UniProt P10275); assay: AR-VP16 DNA Binding Assay (VP16 WT); assay type: cell-based; details: HepG2, antagonist mode, 90 pM R1881, 48 hours
Description: HepG2 cells were maintained in EMEM supplemented with 10% FBS. One day before transfection, the media was changed to EMEM with 10% CSS. T-150 flasks were transiently transfected using 120 μL Lipofectamine 2000 (Life Technologies), 24.5 μg AR-VP16 or F876L-VP16 (expression vector) and 49 μg 4×ARE-Luciferase (reporter vector) in OptiMEM and the flasks were incubated overnight. Cells were then trypsinized, counted and resuspended at 500,000 cells/mL. For agonist mode, the compounds were serially diluted and 50 μL of the compound was added per well. 50 μL of the cells were added to each well and incubated for 48 hours. For antagonist mode, a final concentration of 90 pM (VP16 AR) or 1 nM (VP16 F876L) R1881 was added to the plate and incubated for 48 hours. The plates were then assayed using SteadyGlo and read on the Envision. Percent Stimulation and Inhibition were determined and analyzed using GraphPad Prism.

[1] = tested on: androgen dependent signaling (androgen sensitive organs); assay: Hershberger Assay; assay type: in vivo, rat
Description: The effect of AR antagonists on androgen dependent signaling in vivo was assessed using the Hershberger assay. In this assay, peripubertal castrated male Sprague-Dawley rats were administered AR antagonists described herein in the presence of testosterone (0.4 mg/kg testosterone propionate) and the weights of androgen dependent organs measured. Dosing was continued for 10 days and measurements taken 24 h after the last dose. The extent of antagonism of AR and consequent inhibition of organ growth was evaluated by comparison to the castration control. Compounds of Formula (I) were dosed orally QD and an endpoint assessment made by change in weight of 5 androgen sensitive organs (ASO): Paired Cowper's Glands (CG), Seminal Vesicles with Fluids and Coagulating Glands (SVCG), Glans Penis (GP), Ventral Prostate (VP) and Levator Ani-Bulbocavernosus Complex (LABC)). According to assay guidelines, statistically significant suppression of ASO is required in 2 of 5 organs for a compound to be classified as an anti-androgen (analysis was performed by t-test/Mann-Whitney).
Unless otherwise stated, compounds defined herein were administered at 30 mg/kg and flutamide (FT), positive control, at 3 mg/kg. All compounds were co-administered with testosterone propionate (TP, 0.4 mg/kg) which was also administered alone, untreated control, (castrated only rats served as the control for complete androgen blockade). A statistically significant change in ASO achieved in at least 2 of 5 organs was indicative of an active compound.

[2] = 30 mg/kg orally QD, 10 days, with TP 0.4 mg/kg, castrated rats, mean ± SD (n=6)

Sequence of GR (human) (P04150 whole entry): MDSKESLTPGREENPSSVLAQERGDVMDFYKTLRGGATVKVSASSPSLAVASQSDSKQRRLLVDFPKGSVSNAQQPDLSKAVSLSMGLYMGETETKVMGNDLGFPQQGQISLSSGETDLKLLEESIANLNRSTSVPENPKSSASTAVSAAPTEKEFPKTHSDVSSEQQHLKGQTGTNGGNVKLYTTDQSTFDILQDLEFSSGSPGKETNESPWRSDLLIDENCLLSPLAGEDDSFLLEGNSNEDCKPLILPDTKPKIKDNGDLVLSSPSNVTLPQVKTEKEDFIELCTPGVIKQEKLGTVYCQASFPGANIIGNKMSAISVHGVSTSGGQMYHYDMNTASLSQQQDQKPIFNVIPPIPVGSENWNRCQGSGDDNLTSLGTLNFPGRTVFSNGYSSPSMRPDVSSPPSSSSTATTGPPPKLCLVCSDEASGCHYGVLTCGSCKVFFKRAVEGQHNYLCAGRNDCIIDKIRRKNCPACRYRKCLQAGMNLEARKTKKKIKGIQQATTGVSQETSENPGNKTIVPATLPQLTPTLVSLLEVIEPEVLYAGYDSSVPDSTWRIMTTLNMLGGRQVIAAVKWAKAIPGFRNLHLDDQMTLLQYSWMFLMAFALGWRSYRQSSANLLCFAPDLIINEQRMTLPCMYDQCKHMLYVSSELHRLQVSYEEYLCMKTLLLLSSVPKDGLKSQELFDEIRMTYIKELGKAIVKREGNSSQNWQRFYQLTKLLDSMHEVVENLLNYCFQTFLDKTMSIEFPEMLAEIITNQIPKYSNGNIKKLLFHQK
Sequence of AR-VP16 (P10275 whole entry, looked up): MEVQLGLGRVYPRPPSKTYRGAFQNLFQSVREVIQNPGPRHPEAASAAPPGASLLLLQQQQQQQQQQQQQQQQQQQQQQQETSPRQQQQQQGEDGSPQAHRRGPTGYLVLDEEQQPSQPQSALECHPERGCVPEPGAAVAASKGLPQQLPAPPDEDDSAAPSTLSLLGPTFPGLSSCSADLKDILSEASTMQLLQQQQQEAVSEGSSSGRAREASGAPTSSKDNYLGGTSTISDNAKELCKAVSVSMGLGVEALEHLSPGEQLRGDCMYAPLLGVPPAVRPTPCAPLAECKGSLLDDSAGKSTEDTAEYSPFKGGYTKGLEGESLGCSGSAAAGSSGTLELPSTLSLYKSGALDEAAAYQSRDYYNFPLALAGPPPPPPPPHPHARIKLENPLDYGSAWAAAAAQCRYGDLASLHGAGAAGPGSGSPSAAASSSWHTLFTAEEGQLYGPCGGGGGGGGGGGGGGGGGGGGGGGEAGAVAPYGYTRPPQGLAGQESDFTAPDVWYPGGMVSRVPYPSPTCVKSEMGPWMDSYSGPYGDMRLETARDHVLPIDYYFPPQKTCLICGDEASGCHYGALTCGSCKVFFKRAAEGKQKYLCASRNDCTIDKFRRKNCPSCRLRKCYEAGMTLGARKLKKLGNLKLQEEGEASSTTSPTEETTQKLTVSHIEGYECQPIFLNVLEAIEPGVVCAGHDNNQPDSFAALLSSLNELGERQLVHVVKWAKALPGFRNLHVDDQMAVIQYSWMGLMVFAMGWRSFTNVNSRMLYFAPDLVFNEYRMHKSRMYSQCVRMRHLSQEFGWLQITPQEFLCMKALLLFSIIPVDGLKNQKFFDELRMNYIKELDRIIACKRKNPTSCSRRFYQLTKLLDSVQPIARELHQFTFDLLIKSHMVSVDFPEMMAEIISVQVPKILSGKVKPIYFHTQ

- pIC50 (GR (human)): < 4.52
- pIC50 (AR-VP16): 5.11
Structure (SMILES): N#Cc1ncc(N2C(=O)C3(CCC3)N(c3ccc(OC4CCNCC4)nc3)C2=S)cc1C(F)(F)F [Cpd 43, 5-[5-oxo-8-[6-(4-piperidyloxy)-3-pyridyl]-7-thioxo-6,8-diazaspiro[3.4]octan-6-yl]-3-(trifluoromethyl)pyridine-2-carbonitrile]
- pIC50 (LNCaP F876L): 6.71
- TGI (LNCaP SRαF876L cells; 30 mg/kg): 91% (n = 9)
- TGI (LNCaP SRαF876L cells; 50 mg/kg): 87% (n = 10)
- pIC50 (LNCaP WT): 6.36
- ASO Organ Growth (% of TP control) SVCG [1, 2]: 26.0 ± 17.8 % of TP control
- ASO Organ Growth (% of TP control) VP [1, 2]: 24.1 ± 48.1 % of TP control
- Reduction in ASO versus TP control ([1]; all 5 organs, p≤0.05, 30 mg/kg): significant reduction

Reference: patent US10981926B2 (Janssen Pharmaceutica NV, priority 2016, dated 2021)
